Experimental data from patent publication EP2489663A1, “Compounds as syk kinase inhibitors” (Almirall, S.A., priority 2011, dated 2012).

Key:
[1] = target: T1, human full-length Syk (Homo sapiens, UniProt P43405); experiment: Syk Enzyme assay - Radioactive filtration kinase assay; assay type: biochemical; conditions: recombinant human full-length Syk 1 nM, poly-GT substrate, [γ-33P] ATP, 40 min room temperature
T1 construct: Recombinant human full-length Syk was supplied by Millipore; purchased Millipore
Method: Syk Enzyme assay- Radioactive filtration kinase assay
Recombinant human full-length Syk was supplied by Millipore. The activity of Syk kinase was assessed using a radioactive filtration kinase assay.
10 µL of substrate poly-GT (100 µg/mL final) and 4 µl of Syk (1 nM final) in 50 mM Tris-HCl (pH 7.5), 0.1 mM EGTA, 4 mM Mg(CH3COO)2, 0.1 mM Na3VO4, 0.1% (v/v) β-mercaptoethanol, 0.133 mg/mL BSA (bovine serum albumin) were added to 1.5 µl of various concentrations of compound or DMSO vehicle (5% final). The reaction was initiated by the addition of 14.5 µL of 0.36 µCi [γ-^33P] ATP (adenosine tri-phosphate) (10 mCi/ml, PerkinElmer). This was prepared in a half-area NBS plate (Corning) and allowed to stand at room temperature for 40 min.
15 µL of reaction mixture was transferred to a filter plate (Millipore) previously prewetted with a solution of 75 mM phosphoric acid. The reaction was terminated with the addition of 200 µL phosphoric acid. The filter plate was washed three times under vacuum on a vacuum manifold (Millipore cat# MSVMHTS00) at 8" Hg vacuum level with 200 µL phosphoric acid per wash.
30 µL Optiphase™ Supermix (PerkinElmer) was added to each test well and allowed to incubate for at least 1 h before counting. Radioactivity counting was performed in a Wallac MicroBeta®, and the tyrosine phosphorylation activity by Syk was calculated.

[2] = tested on: LAD2 cells; experiment: LAD2 cells assay (mast cell degranulation, β-hexosaminidase release); assay type: cell-based; conditions: Homo sapiens, 0.5 h; biotin-labeled IgE sensitized LAD2 cells, compound 30 min, activated with 125 ng/mL streptavidin 30 min, released β-hexosaminidase
Source text: LAD2 is a human mast cell line depending on stem cell factor for its survival, maturation and differentiation. This mast cell line was established by the NIH from bone marrow aspirates from a patient with mast cell sarcoma. LAD2 cells resemble CD34+ - derived human mast cells as they have granules containing tryptase, histamine and β-hexosaminidase. They also express c-kit and FcεRI (Kirshenbaum, et al., Leukemia Research 27: 677-682, 2003).
Sensitization of LAD2 cells
Cells were sensitized (0.2x10^6 cells/mL) in its normal growth factor (Complete StemPro-34 SFM, Gibco 10639-011 containing StemPro-34 nutrient supplement (1/40); glutamine (2 mM) and supplemented with 100 ng/ml SCF) by adding 100 ng/mL of biotin-labeled IgE (USBiological) overnight (16-18 h, 37º, 5% CO2) in a humidified atmosphere (90%).
Compounds were prepared from a 10^-2M stock in 100% DMSO to give seven successive 1/3 dilutions in DMSO. From each concentration, 2 further 1/10 dilutions were prepared in release buffer (137 mM NaCl, 2.70 mM KCI, 0.4 mM NaH2PO4, 5.6 mM (D)-glucose, 1.8 mM CaCl2, 1.3 mM MgSO4, 0.025% BSA). Finally, 5 µl from each diluted concentration were transferred into the assay plate (flat 96-well Nunc). The final compound concentrations tested ranged from 1x10^-5M to 4.12x10^-9M with a final proportion of DMSO in the assay of 0.1%. Control wells were treated with 0.1 % DMSO.
Sensitized LAD2 cells were centrifuged (300 g, 3 min, R.T.) and washed 2 times with release buffer. Cells were resuspended in release buffer and adjusted to a density of 0.2x10^6/mL. 45 µL of the adjusted cells were transfered to the assay plate (∼10,000cells/well) containg 5 µL of the final compound concentrations. LAD2 cells were incubated with the compound for 30 min (37 °C, 5% CO2 90% of humidity) and then activated with 125 ng/mL of streptavidin (Pierce 21125) for 30 min (37°C, 5% CO2, 90% of humidity). After the activation, cells were centrifuged at 1200 g, 10 min, 12 °C and supernatats were removed and transfered to another well for determination of released β-hexosaminidase. Empty wells were filled with 50 µL of release buffer for determination of intracellular β-hexosaminidase. Cells were lysed with 2 cycles of freeze-thaw.
Cells were incubated for 90 minutes, 37 °C with 1 mM β-hexosaminidase substrate (p-nitrophenyl N-acetyl-D-glucosamide, in citric buffer, pH 4.5). Reaction was stopped with 0.4 M glycine solution (pH 10.0) and the plate is read immediately at 405 nm.

| Structure (SMILES) | IC50 [1] [nM] | IC50 [2] [nM] |
| --- | --- | --- |
| O=S(=O)(Nc1ccc2c(Nc3cnccn3)nn(-c3ccnc(N4C[C@@H]5C[C@H]4CN5)c3)c2c1)c1ccccc1 [Example 30, N-[1-{2-[(1S,4S)-2,5-Diazabicyclo[2.2.1]hept-2-yl]pyridin-4-yl}-3-(pyrazin-2-ylamino)-1H-indazol-6-yl]benzenesulfonamide] | 20 | – |
| c1ccc2c(c1)c(Nc1cnccn1)nn2-c1ccnc(N2C[C@@H]3C[C@H]2CN3)c1 [Example 10, 1-{2-[(1S,4S)-2,5-Diazabicyclo[2.2.1]hept-2-yl]pyridin-4-yl}-N-pyrazin-2-yl-1H-indazol-3-amine] | 7.4 | 55 |
| COc1ccc2c(Nc3cnccn3)nn(-c3ccnc(N4CCCNCC4)c3)c2c1 [Example 62, 1-[2-(1,4-diazepan-1-yl)pyridin-4-yl]-6-methoxy-N-pyrazin-2-yl-1H-indazol-3-amine] | 17 | 169 |
| c1ccc2c(c1)c(Nc1cnccn1)nn2-c1cc(N2C[C@@H]3C[C@H]2CN3)ccn1 [Example 69, 1-{4-[(1S,4S)-2,5-Diazabicyclo[2.2.1]hept-2-yl]pyridin-2-yl}-N-pyrazin-2-yl-1H-indazol-3-amine] | 13 | 263 |
| Oc1ccc2c(Nc3cnccn3)nn(-c3cncc(N4C[C@@H]5C[C@H]4CN5)c3)c2c1 [Example 63, 1-{5-[(1S,4S)-2,5-Diazabicyclo[2.2.1]hept-2-yl]pyridin-3-yl}-3-(pyrazin-2-ylamino)-1H-indazol-6-ol] | 11 | 363 |
| Cc1ccnc(Nc2nn(-c3ccnc(N4C[C@@H]5C[C@H]4CN5)c3)c3cc(O)ccc23)c1 [Example 88, 1-{2-[(1S,4S)-2,5-diazabicyclo[2.2.1]hept-2-yl]pyridin-4-yl}-3-[(4-methylpyridin-2-yl)amino]-1H-indazol-6-ol] | 5 | 364 |
| c1ccc2c(c1)c(Nc1cnccn1)nn2-c1ccnc(N2CCCNCC2)c1 [Example 8, 1-[2-(1,4-Diazepan-1-yl)pyridin-4-yl]-N-pyrazin-2-yl-1H-indazol-3-amine] | 17 | – |
| c1cnc(Nc2nn(-c3ccnc(N4C[C@@H]5C[C@H]4CN5)c3)c3cc(C4CC4)ccc23)cn1 [Example 58, 6-cyclopropyl-1-{2-[(1S,4S)-2,5-diazabicyclo[2.2.1]hept-2-yl]pyridin-4-yl}-N-pyrazin-2-yl-1H-indazol-3-amine] | 4 | 266 |
| COc1ccc2c(Nc3cnccn3)nn(-c3ccnc(N4CCNC[C@@H]4C)c3)c2c1 [Example 76, 6-Methoxy-1-{2-[(2S)-2-methylpiperazin-1-yl]pyridin-4-yl}-N-pyrazin-2-yl-1H-indazol-3-amine] | 11 | 137 |
| C[C@H]1CNCCN1c1cc(-n2nc(Nc3cnccn3)c3ccccc32)ccn1 [Example 50, 1-{2-[(2S)-2-methylpiperazin-1-yl]pyridin-4-yl}-N-pyrazin-2-yl-1H-indazol-3-amine] | 11 | 80 |
| Cc1ccc2c(Nc3cnccn3)nn(-c3cncc(N4C[C@@H]5C[C@H]4CN5)c3)c2c1 [Example 71, 1-{5-[(1S,4S)-2,5-diazabicyclo[2.2.1]hept-2-yl]pyridin-3-yl}-6-methyl-N-pyrazin-2-yl-1H-indazol-3-amine] | 5 | 111 |
| O=C(c1ccc2c(Nc3cnccn3)nn(-c3ccnc(N4C[C@@H]5C[C@H]4CN5)c3)c2c1)N1CCCCC1 [Example 21, 1-{2-[(1S,4S)-2,5-Diazabicyclo[2.2.1]hept-2-yl]pyridin-4-yl}-6-(piperidin-1-ylcarbonyl)-N-pyrazin-2-yl-1H-indazol-3-amine] | 10.5 | 342 |
| Oc1ccc2c(Nc3cnccn3)nn(-c3ccnc(N4CCCNCC4)c3)c2c1 [Example 86, 1-[2-(1,4-diazepan-1-yl)pyridin-4-yl]-3-(pyrazin-2-ylamino)-1H-indazol-6-ol] | 15 | 263 |

Second part, led by results:

| IC50 [1] [nM] | Structure (SMILES) | IC50 [2] [nM] |
| --- | --- | --- |
| 9 | Cc1nc(N2C[C@@H]3C[C@H]2CN3)cc(-n2nc(Nc3cnccn3)c3ccccc32)n1 [Example 42, 1-{6-[(1S,4S)-2,5-Diazabicyclo[2.2.1]hept-2-yl]-2-methylpyrimidin-4-yl}-N-pyrazin-2-yl-1H-indazol-3-amine] | 254 |
| 12 | COCCOc1ccc2c(Nc3cnccn3)nn(-c3ccnc(N4C[C@@H]5C[C@H]4CN5)c3)c2c1 [Example 61, 1-{2-[(1S,4S)-2,5-diazabicyclo[2.2.1]hept-2-yl]pyridin-4-yl}-6-(2-methoxyethoxy)-N-pyrazin-2-yl-1H-indazol-3-amine] | 136 |
| 16 | COc1ccc2c(Nc3cnccn3)nn(-c3cccc(N4C[C@@H]5C[C@H]4CN5)c3)c2c1 [Example 89, 1-{3-[(1S,4S)-2,5-diazabicyclo[2.2.1]hept-2-yl]phenyl}-6-methoxy-N-pyrazin-2-yl-1H-indazol-3-amine] | 160 |
| 8 | COc1ccc2c(Nc3cnccn3)nn(-c3ccnc(N4C[C@@H]5C[C@H]4CN5)c3)c2c1 [Example 31, 1-{2-[(1S,4S)-2,5-Diazabicyclo[2.2.1]hept-2-yl]pyridin-4-yl}-6-methoxy-N-pyrazin-2-yl-1H-indazol-3-amine] | 111 |
| 15 | COc1ccc2c(Nc3cnccn3)nn(-c3cc(N4C[C@@H]5C[C@H]4CN5)ncn3)c2c1 [Example 56, 1-{6-[(1S,4S)-2,5-diazabicyclo[2.2.1]hept-2-yl]pyrimidin-4-yl}-6-methoxy-N-pyrazin-2-yl-1H-indazol-3-amine] | 179 |
| 6 | Cc1ccc2c(Nc3cnccn3)nn(-c3ccnc(N4C[C@@H]5C[C@H]4CN5)c3)c2c1 [Example 55, 1-{2-[(1S,4S)-2,5-Diazabicyclo[2.2.1]hept-2-yl]pyridin-4-yl}-6-methyl-N-pyrazin-2-yl-1H-indazol-3-amine] | 142 |
| 2.5 | Nc1ccc2c(Nc3cnccn3)nn(-c3ccnc(N4C[C@@H]5C[C@H]4CN5)c3)c2c1 [Example 12, 1-{2-[(1S,4S)-2,5-Diazabicyclo[2.2.1]hept-2-yl]pyridin-4-yl}-N^3-pyrazin-2-yl-1H-indazole-3,6-diamine] | 167 |
